This is an account of results in ChEMBL document CHEMBL1201862, “PubChem BioAssay data set” (2004).

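These data come from cells grown in 96-well plates and exposed to compound for 48 hours at five concentrations. The concentration for 50% growth inhibition is given as GI50.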 Calls of active or inactive are those of the source. Rule as the data show it: active = GI50 up to about 1.1 µM and inactive = higher.

Some test systems named below: HL-60; SF-295; SN12C; LXFL 529; EKVX; A498; HOP-62; U-251; A549; OVCAR-8; OVCAR-4; CAKI-1; UO-31; KM12.
Common to all, as to experiment: growth of human tumour cells (NCI), 48 h

In the case of `CC(C)OCN1COCN/C1=N/C#N`, the GI50 with HL-60, in the assay on SF-295, with SN12C, in the assay on LXFL 529, with EKVX and in the assay on A498 was > 100 µM (inactive) in each case. Also, the GI50 was > 100 µM (inactive) in the assay on HOP-62; 42.2 µM (inactive) in the assay on U-251; > 100 µM (inactive) in the assay with A549; > 100 µM (inactive) in the assay on OVCAR-8; > 100 µM (inactive) in the assay on OVCAR-4; > 100 µM (inactive) in the assay on CAKI-1. Besides, the GI50 with UO-31 and in the assay with KM12 was > 100 µM (inactive) each time.

In the case of `Cn1cc2ccccc2c1-c1nc(F)nc(Oc2ccc3c(c2)CC[C@@H]2C3CC[C@@]3(C)C2CC[C@@H]3O)n1` (stereo partly specified), the GI50 in the assay on HL-60 was 3.81 µM (inactive); with SF-295, 22.6 µM (inactive); in the assay with SN12C, 7.87 µM (inactive); in the assay with LXFL 529, 3.71 µM (inactive); with EKVX, 15.6 µM (inactive); in the assay on A498, 20.5 µM (inactive). Also, the GI50 is 9.59 µM (inactive) with HOP-62; 6.73 µM (inactive) in the assay on U-251; 24.8 µM (inactive) in the assay with A549; 7.45 µM (inactive) in the assay with OVCAR-8; 7.43 µM (inactive) in the assay with OVCAR-4; 11.6 µM (inactive) in the assay with CAKI-1. Further, the GI50 in the assay on UO-31 was 24.4 µM (inactive); in the assay on KM12 it was 11.4 µM (inactive).

Turning to `Cc1cc(NS(=O)(=O)c2ccc(NC(=O)c3cccc4c(=O)c5ccccc5[nH]c34)cc2)no1`, the GI50 with HL-60 was 30.9 µM (inactive); in the assay on SF-295, > 10 µM (inactive); with SN12C, 44.1 µM (inactive); in the assay on LXFL 529, 15.7 µM (inactive); in the assay with EKVX, 43.6 µM (inactive); in the assay on A498 it was 28.8 µM (inactive). In addition, the GI50 in the assay on HOP-62 was 21.6 µM (inactive); in the assay on U-251, 29.9 µM (inactive); in the assay on A549 it was > 100 µM (inactive); in the assay on OVCAR-8, 12.5 µM (inactive); in the assay with OVCAR-4, 51.6 µM (inactive); with CAKI-1 it was 65.8 µM (inactive). The GI50 with UO-31 is 15.7 µM (inactive); in the assay on KM12 it was 78.3 µM (inactive).

As for `CCCCN/C(=N/C#N)NCc1ccccc1`, the GI50 in the assay on HL-60, in the assay on SF-295, with SN12C, in the assay on LXFL 529, with EKVX and in the assay with A498 was > 100 µM (inactive) each time. For the same compound, the GI50 with HOP-62, with U-251, with A549, in the assay with OVCAR-8, in the assay on OVCAR-4 and in the assay with CAKI-1 was > 100 µM (inactive) in each case. For the same compound, the GI50 in the assay with UO-31 and in the assay with KM12 was > 100 µM (inactive) throughout.

Turning to `O=C1NN=CN2C(=O)CCC12` (stereo unspecified), the GI50 in the assay with HL-60, with SF-295, in the assay with SN12C, in the assay on LXFL 529, in the assay on EKVX and in the assay on A498 was > 100 µM (inactive) in each case. The GI50 with HOP-62, in the assay with U-251, in the assay on A549, in the assay with OVCAR-8, in the assay on OVCAR-4 and in the assay on CAKI-1 was > 100 µM (inactive) each time. Further, the GI50 in the assay with UO-31 and in the assay with KM12 was > 100 µM (inactive) throughout.

Take `Nc1nc(S)nc(C(=O)Nc2ccc(Cl)c(Cl)c2)c1-c1ccc(Cl)cc1`: the GI50 in the assay with HL-60, with SF-295, with SN12C, in the assay on LXFL 529, in the assay with EKVX and in the assay with A498 was > 100 µM (inactive) throughout. Moreover, the GI50 with HOP-62, with U-251, with A549, with OVCAR-8, in the assay with OVCAR-4 and in the assay with CAKI-1 was > 100 µM (inactive) each time. The GI50 in the assay on UO-31 and with KM12 was > 100 µM (inactive) in each case.

As to `CCCN(CCC)C(=O)c1nc(N)nc(-c2ccc(OC)cc2)c1-c1ccc(OC)cc1`, the GI50 in the assay on HL-60 was 73.8 µM (inactive); in the assay on SF-295, > 100 µM (inactive); with SN12C, > 100 µM (inactive); in the assay on LXFL 529, 82 µM (inactive); in the assay with EKVX, > 100 µM (inactive); in the assay on A498 it was > 100 µM (inactive). Also, the GI50 in the assay on U-251 is > 100 µM (inactive); with A549, > 100 µM (inactive); in the assay with OVCAR-8, > 100 µM (inactive); in the assay on OVCAR-4, 47.9 µM (inactive); with CAKI-1 it was > 100 µM (inactive); in the assay with UO-31, > 100 µM (inactive). Besides, the GI50 in the assay with KM12 was > 100 µM (inactive).

As for `O=C1[C@H]2ON(c3ccccc3)C(c3ccco3)[C@H]2C(=O)N1c1ccc(Cc2ccc(N3C(=O)[C@@H]4ON(c5ccccc5)C(c5ccco5)[C@@H]4C3=O)cc2)cc1` (stereo partly specified), the GI50 with HL-60, with SF-295, with SN12C, in the assay on LXFL 529, in the assay with A498 and in the assay on HOP-62 was > 100 µM (inactive) throughout. The GI50 in the assay on U-251, in the assay on A549, in the assay with OVCAR-4, with CAKI-1, with UO-31 and in the assay on KM12 was > 100 µM (inactive) throughout.

For the compound `Cc1cc(N(CCC#N)CCC#N)ccc1/N=N/c1ccc(C(=O)O)cc1`, the GI50 in the assay with SF-295 is > 100 µM (inactive); in the assay on SN12C, > 100 µM (inactive); with LXFL 529, > 100 µM (inactive); in the assay with EKVX it was > 100 µM (inactive); in the assay with A498 it was > 100 µM (inactive); with HOP-62, 61 µM (inactive). Besides, the GI50 in the assay on U-251 is > 100 µM (inactive); with A549, > 100 µM (inactive); in the assay on OVCAR-8, > 100 µM (inactive); in the assay on OVCAR-4, > 100 µM (inactive); in the assay on CAKI-1, > 100 µM (inactive); in the assay on UO-31, 77.6 µM (inactive). Besides, the GI50 in the assay with KM12 is > 100 µM (inactive).

Turning to `CCOc1ccc(/C=N\N2C(=O)c3ccccc3C2=O)cc1`, the GI50 in the assay with HL-60, in the assay on SF-295, in the assay with SN12C, in the assay with LXFL 529, in the assay on EKVX and with A498 was > 100 µM (inactive) throughout. Further, the GI50 with HOP-62, in the assay with A549, in the assay with OVCAR-8, in the assay on OVCAR-4, with CAKI-1 and in the assay with UO-31 was > 100 µM (inactive) throughout. Moreover, the GI50 in the assay with KM12 was > 100 µM (inactive).

Regarding `COC(=O)C1=C(C)C(=O)C2(CCCCCC2C(=O)OC)C1` (stereo unspecified), the GI50 with HL-60, in the assay on SF-295, in the assay with SN12C, with LXFL 529, in the assay on EKVX and with A498 was > 100 µM (inactive) in each case. Besides, the GI50 with HOP-62 is 68.7 µM (inactive); in the assay on U-251, > 100 µM (inactive); in the assay on A549, > 100 µM (inactive); in the assay on OVCAR-8, > 100 µM (inactive); in the assay with OVCAR-4, > 100 µM (inactive); in the assay with CAKI-1 it was > 100 µM (inactive). Further, the GI50 in the assay on UO-31 and with KM12 was > 100 µM (inactive) each time.

Consider `COC(=O)[C@@]12OC[C@]34C([C@@H](O)C1O)[C@@]1(C)CC(=O)C(O)=C(C)C1C[C@H]3OC(=O)[C@H](OC(=O)CC(C)C(F)(F)F)[C@H]42` (stereo partly specified), for which the GI50 with HL-60 is 0.00375 µM (active); in the assay on SF-295 it was 0.0445 µM (active); with SN12C, 0.145 µM (active); with LXFL 529, 0.00731 µM (active); in the assay on EKVX, 0.128 µM (active); with A498 it was 0.0214 µM (active). Besides, the GI50 in the assay with HOP-62 is 0.0989 µM (active); with U-251, 0.0205 µM (active); in the assay on A549, 0.0265 µM (active); with OVCAR-8 it was 0.0574 µM (active); in the assay with OVCAR-4 it was 0.0676 µM (active); in the assay on CAKI-1, 0.056 µM (active). Besides, the figures for the GI50 in the assay with UO-31 and in the assay on KM12 were 0.149 µM (active) and 0.0324 µM (active), respectively.

Regarding `CCN1/C(=C/C(C)=C/c2sc3ccccc3[n+]2CC)Sc2ccccc21`, the GI50 with HL-60 is 0.0405 µM (active); in the assay on SF-295 it was 0.112 µM (active); in the assay with SN12C, 0.234 µM (active); with LXFL 529, 0.0331 µM (active); with EKVX, 0.0885 µM (active); in the assay with A498, 0.381 µM (active). The GI50 in the assay on HOP-62 was 0.122 µM (active); in the assay on U-251, 0.0378 µM (active); in the assay on A549, 0.0843 µM (active); with OVCAR-8 it was 0.0948 µM (active); with OVCAR-4, 0.361 µM (active); in the assay on CAKI-1, 0.203 µM (active). For the same compound, the values for the GI50 with UO-31 and in the assay on KM12 were 0.0811 µM (active) and 0.0641 µM (active), respectively.

Turning to `O=CN/C=C/c1ccc(O)c(O)c1`, the GI50 in the assay with HL-60 is 55 µM (inactive); in the assay with SF-295, > 100 µM (inactive); with SN12C, > 100 µM (inactive); with LXFL 529, > 100 µM (inactive); in the assay with EKVX it was > 100 µM (inactive); with A498, > 100 µM (inactive). The GI50 in the assay with HOP-62, with U-251, in the assay on A549, with OVCAR-8, with OVCAR-4 and in the assay with CAKI-1 was > 100 µM (inactive) each time. The GI50 in the assay with UO-31 and in the assay with KM12 was > 100 µM (inactive) in each case.
